# Data reported in patent US7892767B2, “Phosphospecific chemokine receptor antibodies” (Washington University in St. Louis, priority 2005, dated 2011).
# Legend:
# [1] = tested on: PDE4A-expressing U87 cells; assay: Viable cell number, PDE4A-expressing U87 cells; type: cell-based, human; conditions: CXCL12 1 μg/ml, AMD 3465 2.5 μg/ml, Rolipram 200 μM
# Protocol: PDE4A expression. U87 and Daoy cells (15,000 cells) were transiently transfected for 48 h with a plasmid encoding a transgene for the tet-off transactivator (tTA) alone (kind gift from Dr. Louis Muglia, Washington University School of Medicine, St. Louis, Mo.), a plasmid containing a transgene for tet-off regulated expression of phosphodiesterase 4A (PDE4A) alone (kind gift from Dr. James Cherry, Boston University, Boston, Mass.), or a combination of both plasmids, using lipofectamine (Invitrogen) according to the manufacturer's instructions. Plasmid DNA (2 μg) was mixed with lipofectamine (5 μl) per 35 mm^2 dish. Transfection proceeded for 9 hours prior to exchanging transfection media for αMEM supplemented with 10% FCS.
# [2] = tested on: Daoy medulloblastoma cells; assay: Viable cell number by trypan blue exclusion, Daoy cells; type: cell-based, human; conditions: CXCL12 1 μg/ml
# Protocol: Brain tumor cell cultures. Cells were cultured in αMEM (Invitrogen, Carlsbad, Calif.) supplemented with 10% FCS (Biomedia, Foster City, Calif.) in the presence of penicillin streptomycin at 37° C. with 5% CO2.
# (§1) Growth factor and drug treatment. Following serum-starvation for 24 hours, astrocytes, granule cells, U87 cells and Daoy cells, were treated with 1 μg/ml CXCL12 (PeproTech), […] AMD3465 (kind gift from Simon Fricker, AnorMED, Langley, BC, Canada) (200 μM Rolipram (Sigma), or 10 μM Forskolin (Sigma) as indicated.
# Nf1+/+ astrocytes [3] = assay: Cell number by trypan blue exclusion, Nf1+/+ astrocytes; type: cell-based, mouse; conditions: CXCL12 0.1 ug/ml (≈10 nM), 24 hours, vs untreated controls
# Protocol: Culture and treatment of primary astrocytes. Primary cultures of astrocytes were prepared from post-natal day two Nf1^flox/flox mice as previously described (134) and in accordance with established Animal Studies Protocols at Washington University School of Medicine. Cultures were infected with adenovirus containing either Cre recombinase (Nf1−/−) or LacZ (Nf1+/+). Primary cultures of astrocytes were grown under standard adherent conditions in serum free media (DMEM/F12 or Neurobasal (Gibco-BRL)) in the presence or absence of 0.1 μg/ml CXCL12 (Peprotech) and 10 μM Forskolin for 24 hours, as indicated. Cell number was determined after 24 hours by trypan blue exclusion and the growth effects of CXCL12 were derived as follows: ((cell number in the presence of CXCL12—cell number cell in the absence of CXCL12)/cell number in the absence of CXCL12)×100.)
# To determine the biological significance of CXCR4 activation to NF1 glioma biology, we next sought to evaluate the regulation of CXCL12 growth effects by neurofibromin in astrocytes. While the true cell of origin of astrocytomas remains unknown, we utilized primary cultures of cortical astrocytes as a model of a normal counterpart to astrocytoma cells. Astrocytes were derived from Nf1^flox/flox mice and rendered Nf1+/+ or Nf1−/− by infection with adenovirus encoding LacZ or Cre recombinase, respectively.
# [4] = tested on: cerebellar granule precursor cells (GPCs); assay: Intracellular cAMP by ELISA, primary cerebellar granule precursor cells; type: cell-based, mouse; conditions: 1 μg/ml CXCL12
# Protocol: Primary granule neuron cultures. Primary cultures of purified GPCs were prepared from 6 day-old BALB/C mice as described (58). Cerebella were dissected and meninges were removed. After incubation with 0.1% trypsin (Sigma) in HBSS with 125 units/ml Dnase (Sigma), 0.5 mM EDTA for 20 minutes at 37° C., cells were pelleted and washed three times with HBSS. The final cell suspension was passed through a […] nylon mesh cell strainer (Falcon, Franklin Lakes, Mich.). Cells were diluted to 2×10^6 cells/ml in DMEM/F12 (Gibco BRL, Gaithersburg, Md.) supplemented with N2 (Gibco BRL), 20 mM KCl, and 36 mM glucose.
# as §1
# Determination of cAMP concentration. Competitive immunoassay for cAMP concentration was performed exactly as directed by the manufacturer. Absorbance at 405 nm was measured and cAMP concentrations were determined by calculation based on a standard curve. Protein concentrations were measured by colormetric assay (Bio-Rad, Hercules, Calif.) according to the manufacturer's directions. cAMP values were normalized to protein for each sample individually.
# Nf1+/+ astrocytes [5] = assay: Intracellular cAMP by ELISA, Nf1+/+ astrocytes; type: cell-based, mouse; conditions: 0.1 μg/ml CXCL12, 45-minute period
# Protocol: cAMP measurements. cAMP was measured by ELISA (Cayman Chemical Company, Ann Arbor, Mich. or Assay Designs, Ann Arbor, Mich.). Briefly, astrocyte cultures were lysed in 0.1 N HCl. After the removal of cellular debris, soluble cellular extract was dried down and resuspended in EIA buffer. Experimental samples and cAMP standard curve were acetylated to increase the sensitivity of the assay and incubated with cAMP ACHe tracer and cAMP EIA anti-serum overnight at 4° C. according to the manufacturer's instructions. After extensive washing, bound antibody was measured by spectrophotometric analysis. Concentrations of cAMP were derived from comparison with standard curve according to manufacturer's instructions.
# We evaluated the time dependent changes in intracellular cAMP in Nf1+/+ and Nf1−/− astrocytes after exposure to 0.1 μg/ml CXCL12. […] However, in Nf1+/+ astrocytes, intracellular levels of cAMP rapidly recovered to baseline and oscillated between baseline and 40% of baseline over the 45-minute experimental period (FIG. 10B).
# We hypothesized that if cooperative signaling between Nf1 loss and CXCR4 activation promotes tumor formation through the suppression of cAMP, then agents that alter intracellular cAMP should modulate CXCL12 responses. We treated astrocytes with the adenylyl cyclase (AC) activator forskolin in the presence and absence of CXCL12. […] In these experiments, forskolin elevated intracellular cAMP levels in both Nf1+/+ and Nf1−/− astrocytes with peak values of 17.8+/−0.4 and 19.4+/−4.5 pmol/mg of protein, respectively, after 24 hours of treatment. The effect of forskolin was not abrogated by co-treatment with CXCL12. Under these conditions, cAMP levels were 17.9+/−2.5 and 10.4+/−5.8 pmol/mg of total protein in Nf1+/+ and Nf1−/− astrocytes, respectively. […] The effect of forskolin on CXCL12-mediated Nf1−/− apoptosis was evidenced by changes in the percentage of Nf1−/− astrocytes in the sub-G0 fraction of the cell cycle (FIG. 11B). Thus while astrocyte growth is dependent upon MEK and PI3 kinase activity, CXCL12-induced Nf1−/− astrocyte growth requires the suppression of intracellular cAMP levels.
substance,measurement,setting,value
CXCL12: chemokine ligand of CXCR4 (Peprotech),effect on cell number,[1],no longer any benefit
same,increase in cell number,[2],greater than 2 fold
same,increase in cell number,[2]; serum-free,greater than 200%
same,decrease in cell number,Nf1+/+ astrocytes [3],10+/−5%
same,change in cAMP levels,[4],little to no change
same,integrated area under the cAMP curve,Nf1+/+ astrocytes [5],2.70
same,"intracellular cAMP, lower level of oscillation",Nf1+/+ astrocytes [5],40 % of baseline
